Results on 22 molecules are retold here after patent US6806267B1, “Apoptosis-inducing compounds” (priority 1998, dated 2004).

For one data set, the system named is K562 cells. Kind of data set: Apoptosis in K562 cells, cytospin and staining. Particulars: for protection against PBOX-6 induced apoptosis / effect of tyrosine kinase inhibitor pretreatment on PBOX-6 induced apoptosis: K562; for protection against PBOX-6 induced apoptosis: Vitamin E 1 hour or N-acetylcysteine 24 hours, then PBOX-6 16 hours; for effect of pretreatment on PBOX-6 induced apoptosis: K562, 1 hour prior to PBOX-6 16 hours; for induction of apoptosis: K562 cells; for effect of tyrosine kinase inhibitor pretreatment on PBOX-6 induced apoptosis: genistein 100 μM, herbimycin A 5 μM, tyrophostin 200 μM. It is filed as cell-based, human.

The next data set concerns HL-60 cells. Kind of data set: Apoptosis in HL-60 cells, cytospin and Rapi-Diff staining. Particulars: for protection against PBOX-6 induced apoptosis: HL-60, N-acetylcysteine 5 mM or TEMPO 1 μM, 30 min prior to PBOX-6 8 hours; for cytotoxicity at 10 µM: Homo sapiens, HL-60, 16 h, read-out: % Apoptosis; for induction of apoptosis at 10 μM / induction of apoptosis at a higher concentration: HL 60 cells; for induction of apoptosis at a higher concentration: higher concentration printed as 10 μM.

For data set [1], the target named is T1, peripheral-type benzodiazepine receptor (PBR) (Homo sapiens, UniProt P30536).
T1 construct: Cell homogenates (50 μg protein) were incubated with 0.5-50 nM [^3H]; PK 11195; endogenous in cells; host or cells: HL-60 cell homogenate
T1 sequence (P30536 whole entry): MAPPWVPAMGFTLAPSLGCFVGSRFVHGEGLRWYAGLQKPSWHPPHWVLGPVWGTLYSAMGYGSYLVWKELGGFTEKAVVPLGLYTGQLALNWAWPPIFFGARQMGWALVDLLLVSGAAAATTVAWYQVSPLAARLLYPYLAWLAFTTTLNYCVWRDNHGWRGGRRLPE
Kind of data set: Radioligand binding assay, inhibition of [^3H]PK 11195 binding to HL-60 homogenates. Particulars: for Ki: HL-60 homogenates, 2 nM [^3H]PK 11195, mean±SEM, read-out: Inhibition of [^3H]PK 11195 binding to the PBR, Ki value. As to the method: HL-60 cells were harvested by centrifugation at 600 g for 5 min and washing in phosphate-buffered saline. The resulting cell pellet was homogenised in 50 mM Tris/HCl buffer, pH 7.4 (2 ml), using an Ultraturrax homogeniser (10 sec) and then passed 5 times through a 21 gauge needle. Cell homogenates (50 μg protein) were incubated with 0.5-50 nM [^3H] PK 11195 in 50 mM Tris/HCl buffer, pH 7.4 (incubation buffer), in a total volume of 0.5 ml on ice. Total and non-specific/non-saturable binding in each case was determined in the absence and presence of 10 μM unlabelled PK 11195 respectively. All samples were incubated in triplicate for 60 min. The incubation mixtures were then filtered and counted as previously described (O'Beirne, et al., 1988). When testing the potency of a compound to inhibit [^3H] PK 11195 binding, samples were incubated with 2 nM [3H] PK 11195 and various concentrations (0.1 nM to 1 μM) of compound and subsequently treated exactly as above. The resulting Ki values were then generated by the use of the computer programs EBDA and LIGAND.
The amount of radioactivity bound in the presence of the displacer was expressed as a percentage of control bonding and the values represent the mean±SEM of triplicate determinations from one representative experiment performed at least twice. The Ki values were obtained as described in Methods section.

Another data set concerns rat C6 glioma. The following applies: dose-dependent; cited from earlier work.
Data set [2] has as its system human 132 l N1 astrocytoma. Particulars: dose-dependent; cited from earlier work.
For data set [3], the system named is CML cell lines K562, KYO.1 and Lama 84. Kind of data set: Apoptosis in CML cell lines, cytospin and staining. The following applies: for induction of apoptosis at 10 μM / induction of apoptosis at 100 μM: CML cells. It is filed as cell-based, human.
The next data set relates to JNK1 and JNK2. It is filed as cell-based, human. The following applies: K562.
Data set [4] relates to tyrosine phosphorylated proteins. Description: Protein tyrosine phosphorylation Western blot, K562 cells. It counts as cell-based, human. Particulars: K562, 100 μM in DMSO, 1 hr prior to PBOX-6. The protocol:
Jurkat and CML cells (5×10^6) were harvested by centrifuigation at 1800 g for 10 min at 4° C. After being washed once with ice-cold phosphate-buffered saline, the cell pellet was suspended in 100 μl of ice-cold lysis buffer (50 mM Tris-HCl, pH 8.0, 150 mM NaCl, 0.1%.SDS, 1% Triton X-100, 1 mM sodium 1 mM phenylmethylsulfonyl, 10 ng/ml leupeptin and 10 ng/ml of aprotinin). The cells were left to sit on ice for 10 min and then centrifuged at 20,000 g for 20 min. The resulting supernatant was stored at −70° C. until measurement of tyrosine phosphorylation. Protein determination was measured by using the Bradford assay. Equal amounts of protein were resolved by SDS-polyacrylamide gel electrophoresis in 15% gels and transferred onto polyvinylidene difluoride (PVDF) membranes. Membranes were blocked with Tris-buffered saline with Tween 20 (10 mM Tris-HCl, pH 8.0, 150 mM NaCl, 0.05% Tween 20) containing 1% w/v BSA and probed with anti-phosphotyrosine antibody. Blots were washed, incubated with goat anti-mouse IgG peroxidase conjugate and developed by ECL according to the manufacturer's recommendations.
In general terms: A western blot detects proteins with antibodies after separation by electrophoresis.

On to `CC(=O)N[C@@H](CS)C(=O)O` [N-acetylcysteine, reference compound], for which the “protection against PBOX-6 induced apoptosis” value (from here on “protection”) with K562 cells was “failed to protect”; in the data set with HL-60 cells, “Neither of these compounds were found to protect”.

Broadly, the Ki is the equilibrium dissociation constant of an inhibitor or competing ligand from its target. Regarding `CC(=O)OC1=C(c2cccc3ccccc23)Oc2ccccc2-n2cccc21` [PBOX-4, 7-Acetoxy-6-(1-naphthyl)pyrrolo[2,1-d][1,5]benzoxazepine], the Ki in data set [1] worked out at 1.9 ± 2.3 nM. In the data set with HL-60 cells, the cytotoxicity at 10 µM stood at 42.1 ± 0.6%.

With `CNC(=O)OC1=C(c2cccc3ccccc23)Oc2ccccc2-n2cccc21` [PBOX-7, 7-[(Methylcarbamoyl)oxy]-6-(1-naphthyl)pyrrolo[2,1-d][1,5]-benzoxazepine], the Ki in data set [1] stood at 1.7 ± 0.7 nM. For the same molecule, in the data set on HL-60 cells (HL-60 cells, 10 μM, 16 hours), the degree of necrosis result is “negligible”. In the data set with HL-60 cells, the cytotoxicity at 10 µM is 40.7 ± 2.5%.

With `CN(C)C(=O)OC1=C(c2cccc3ccccc23)Sc2ccccc2-n2cccc21` [PBOX-8, 7-((Dimethylcarbamoyl)oxy)-6-(1-naphthyl)pyrrolo[2,1-d][1,5]benzothiazepine], the cytotoxicity at 10 µM in the data set with HL-60 cells was 38.6 ± 3.1%.

Consider `CC(=O)OC1=C(c2cccc3ccccc23)Sc2ccccc2-n2cccc21` [PBOX-9, 7-Acetoxy-6-(1-naphthyl)pyrrolo[2,1-d][1,5]benzothiazepine], for which the cytotoxicity at 10 µM in the data set with HL-60 cells turned out to be 40.4 ± 3%.

On to `CC(=O)OC1=C(c2cccc3ccccc23)Oc2cccnc2-n2cccc21` [PBOX-12, 7-Acetoxy-6-(1-naphthyl)pyrrolo[1,2-d]pyrido[3,2-b][1,4]oiazepine], for which the cytotoxicity at 10 µM with HL-60 cells turned out to be 27.1 ± 2.7%.

In the case of `CCN(CC)C(=O)OC1=C(c2ccc(C)cc2)Oc2ccccc2-n2cccc21` [PBOX-21], the “inhibition of proliferation, without being cytotoxic” value (“inhibition … without being cytotoxic” for short) (in the data set with rat C6 glioma; in data set [2]) was “inhibit at micromolar concentrations” throughout.

With `CC(=O)OC1=C(c2ccc(C)cc2)Oc2ccccc2-n2cccc21` [PBOX-24, 7-Acetoxy-6p-tolylpyrrolo[2,1-d][1,5]benzoxazepine], the cytotoxicity at 10 µM with HL-60 cells was determined as 7 ± 1.2%.

In the case of `CCNC(=O)OC1=C(c2ccccc2)Oc2ccccc2-n2cccc21` [PBOX-25, 7-[(Ethylcarbamoyl)oxy]-6-phenylpyrrolo[2,1-d][1,5]benzoxazepine], the cytotoxicity at 10 µM in the data set with HL-60 cells worked out at 19.2 ± 3%.

`CCN(CC)C(=O)OC1=C(c2ccccc2)Oc2cccnc2-n2cccc21` [PBOX-26, 7-((Diethylcarbamoyl)oxy)-6-phenylpyrrolo[1,2-d]pyrido[3,2-b][1,4]oxazepine]: the cytotoxicity at 10 µM in the data set on HL-60 cells came to 7.8 ± 2.3%.

As to `COc1ccc(C2=C(OC(=O)c3ccncc3)c3cccn3-c3ccccc3S2)cc1` [PBOX-28, 7-Isonicotinoyloxy-6-p-methoxyphenylpyrrolo[2,1-d][1,5]-benothiazepine], in the data set on HL-60 cells, the cytotoxicity at 10 µM came to 31.1 ± 1.7%.

On to `CCCC(=O)OC1=C(c2ccc(OC)cc2)[S+]([O-])c2ccccc2-n2cccc21` (stereo not shown) [PBOX-30, 7-(Butyryloxy)-6-(p-methoxyphenyl)pyrrolo[2,1-d][1,5]-benzothiazepine 5-Oxide], for which, in the data set with HL-60 cells, the cytotoxicity at 10 µM was 33.1 ± 1.6%.

As for `CCC(C)N(C)C(=O)c1cc2ccccc2c(-c2ccccc2Cl)n1` (stereo not shown) [PK 11195, 1-(2-chlorophenyl)-N-methyl-N-(1-methylpropyl)-3-isoquinolinecarboxamide], the “induction of apoptosis at 10 μM” value in data set [3] is “failed to induce apoptosis”; in the data set on HL-60 cells (10 μM), “did not induce apoptosis”. Moreover, the “induction of apoptosis at 100 μM” value in data set [3] is “apoptosis was induced, although not to the same extent”. Besides, the “inhibition … without being cytotoxic” value (in the data set on rat C6 glioma; in data set [2]) was “inhibit at micromolar concentrations” each time. In addition, the “induction of apoptosis at a higher concentration” value in the data set with HL-60 cells is “induced apoptosis”.

Consider `CN1C(=O)CN=C(c2ccc(Cl)cc2)c2cc(Cl)ccc21` [Ro5-4864, 7-chloro-5-(4-chlorophenyl)-1,3-dihydro-1-methyl-2-H-1,4-benzodiazepin-2-one], for which the “induction of apoptosis at 10 μM” value is given as “failed to induce apoptosis” in data set [3] and “did not induce apoptosis” in the data set with HL-60 cells (10 μM). For the same molecule, the “induction of apoptosis at 100 μM” value in data set [3] was “apoptosis was induced, although not to the same extent”. Moreover, the “inhibition … without being cytotoxic” value (in the data set with rat C6 glioma; in data set [2]) was “inhibit at micromolar concentrations” throughout. The “induction of apoptosis at a higher concentration” value in the data set on HL-60 cells is given as “induced apoptosis”.

In the case of `CC1(C)CCCC(C)(C)N1[O]` [TEMPO, reference compound], the “protection” value in the data set on HL-60 cells is on record as “Neither of these compounds were found to protect”.

With `CCC(C)N(C)C(=O)c1cc2ccccc2c(-c2ccccc2Cl)n1` (stereo not shown) [[^3H] PK 11195, reference compound], the “Bmax of [^3H] PK 11195 binding” value in data set [1] (HL-60 cell homogenates) is reported as 9.5±1.5 pmol/mg of protein.

With `COc1cc([C@@H]2c3cc4c(cc3[C@@H](O[C@@H]3O[C@@H]5CO[C@@H](C)O[C@H]5[C@H](O)[C@H]3O)[C@H]3COC(=O)[C@H]23)OCO4)cc(OC)c1O` [etoposide], in the data set on K562 cells, the “effect of pretreatment on PBOX-6 induced apoptosis” value is reported as “protects against apoptosis” and the induction of apoptosis result is on record as “does not induce apoptosis”. Besides, the apoptosis entry in the data set with K562 cells (K562, up to 24 hours) is recorded as “failed to undergo apoptosis”. In addition, the “effect of Topo II inhibitor pretreatment on PBOX-6 induced JNK activation” value in the data set on JNK1 and JNK2 is “failed to prevent against PBOX-6 induced activation of JNK”.

In the case of `O=c1c(-c2ccc(O)cc2)coc2cc(O)cc(O)c12` [genistein, reference compound], the “effect of tyrosine kinase inhibitor pretreatment on PBOX-6 induced apoptosis” value in the data set with K562 cells is reported as “completely inhibited the induction of apoptosis”. Also, the “effect of pretreatment on PBOX-6 induced protein phosphorylation” value in data set [4] is given as “prevented the phosphorylation of these two proteins”.

Consider `CO[C@H]1[C@@H](OC)C[C@H](C)[C@@H](OC)C2=CC(=O)C=C(NC(=O)/C(C)=C/C=C\[C@H](OC)[C@@H](OC(N)=O)/C(C)=C/[C@@H]1C)C2=O` [herbimycin A], for which the “effect of tyrosine kinase inhibitor pretreatment on PBOX-6 induced apoptosis” value with K562 cells was “reduced levels of apoptosis”.

`O=C1c2c(O)ccc(O)c2C(=O)c2c(NCCNCCO)ccc(NCCNCCO)c21` [mitoxanthrone]: in the data set with K562 cells, the “effect of pretreatment on PBOX-6 induced apoptosis” value was “protects against apoptosis” and the induction of apoptosis result is recorded as “does not induce apoptosis”.

Consider Vitamin E, for which, in the data set with K562 cells, the “protection” value is reported as “failed to protect”.

Regarding z-DEVD-fmk [reference compound], the “effect of pretreatment on PBOX-6 induced apoptosis” value in data set [3] was “failed to prevent the induction of apoptosis”. In addition, the “effect of pre-treatment on morphological signs of apoptosis induced by PBOX-6” value in the data set on HL-60 cells is given as “inhibited”.
